Assay results taken from patent US8703197B2, “Branched polyamines for delivery of biologically active materials” (International Business Machines Corporation, priority 2012, dated 2014).

Test system: HeLa cells
Test: MTT cytotoxicity of polymer/gene complexes in HeLa cells
Format: cell-based, human
Experimental: The cytotoxicity of the modified bPEI-25/gene complexes and modified bPEI-25/siRNA complexes was studied using the standard MTT assay protocol on HepG2, HeLa and SK-OV-3 cells. The GFP plasmid was used for complex formation and treatment of HepG2 and HeLa cells, while the luciferase plasmid was used for complex formation and treatment of SK-OV-3 cells.
HepG2, HeLa and SK-OV-3 cells were seeded onto 96-well plates at densities of 10000 cells, 5000 and 16000 cells per well, respectively, and allowed to grow to 60% to 70% confluency before treatment. Polymer/gene or polymer/siRNA complexes at various N/P ratios were prepared in water as described above. The cells in each well were then incubated with growth medium comprising 10 microliters of polymer/nucleic acid complexes and 100 microliters of fresh medium for 4 hours at 37° C. Following incubation, the medium was replaced with fresh growth medium and incubated further for 68 hours. […] A 100 microliter aliquot from each well was then transferred to a new 96-well plate for determination of absorbance using a microplate spectrophotometer at wavelengths of 550 nm and 690 nm. Relative cell viability was expressed as [A550−A690)sample/(A550−A690)control]×100%. Data were expressed as mean±standard deviations of at least eight replicates per N/P ratio.

**Q.** With Branched Polyethylenimine [bPEI-25] as the substance, how does the “Maximum N/P ratio for Cell Viability ≧80%, HeLa Max N/P” value read?
**A.** 20
